Data from paper PMC9973354 (mBio, 2022).
Starred links: 1 amine or outer side, 2 acyl side, 3 side chain; linkers in the order of their positions; H or OH if unused. Positions of bridges follow the written chain, without caps; N, C: chain ends. Non-standard residues stand in square brackets, D forms with d. Residues, ends and D or L forms follow the SMILES beside them. ξ: configuration not given here. X1 = O=C([C@@H]1CCN=C2C(N[*:1])=Cc3cc(O)c(O)cc3N21)[*:2]; ξOrn(N(OH)CHO) = NC(CCCN(O)C=O)C(=O)O; Suc = O=C(CCC(=O)[*:2])[*:1]; ξK = NCCCCC(N)C(=O)O; ξS = NC(CO)C(=O)O

What was measured:
Format in all cases: cell-based, Pseudomonas aeruginosa
[1] = test system: PA14 ΔfpvA ΔfpvB pHERD20T-fpvA; assay: Checkerboard assay TS and siderophores, FpvA expressed; settings: 10:90 + 2% arabinose
Excerpt: (§1) We investigated this hypothesis by treating the ΔfpvA ΔfpvB mutant complemented with fpvA or fpvB with TS and pyoverdine-Fe^3+. If pyoverdine competes with TS for the same binding site in the transporter, a reduction in TS susceptibility would be expected, as competition would decrease entry of the antibiotic into the cell. TS susceptibility decreased >8-fold with increasing concentrations of pyoverdine-Fe^3+ when FpvA was expressed (see Fig. S2A in the supplemental material).
(§2) Supplementary file : FIG S2 Checkerboard assays of the PA14 ΔfpvA ΔfpvB strain complemented with fpvA and fpvB in trans with TS and siderophores. […] Checkerboards of the PA14 ΔfpvA ΔfpvB pHERD20T-fpvB strain with TS and enterobactin (G), ferrioxamine E (H), and arthrobactin (I). Results are averaged from three independent biological replicates. Cells in the assay were grown in 10:90 + 2% arabinose. Download FIG S2, EPS file, 2.2 MB.
Checkerboards (8 rows by 8 columns) were conducted as previously described in a 96-well plate (Nunc) ([13], [14]). TS at 75× the final concentration dissolved in DMSO was added in columns from bottom to top in increasing concentrations. Siderophores at 75× the final concentration dissolved in DSMO were added from in rows from left to right in increasing concentrations. Four columns were used for vehicle controls (DMSO) and sterile controls. […] Plates were sealed to prevent evaporation and incubated at 37°C overnight in a shaking incubator (200 rpm). The next day, the OD600 was determined with a plate reader (Thermo Scientific) and normalized to percent of growth of the vehicle control (DMSO) after subtracting the OD600 from blank media.

[2] = test system: PA14 ΔfpvA ΔfpvB pHERD20T-fpvB; assay: Checkerboard assay TS and siderophores, FpvB expressed; settings: 10:90 + 2% arabinose
Excerpt: as §1, §2
Checkerboards (8 rows by 8 columns) were conducted as previously described in a 96-well plate (Nunc) ([13], [14]). TS at 75× the final concentration dissolved in DMSO was added in columns from bottom to top in increasing concentrations. […] The next day, the OD600 was determined with a plate reader (Thermo Scientific) and normalized to percent of growth of the vehicle control (DMSO) after subtracting the OD600 from blank media.

[3] = test system: PA14 ΔfpvA ΔfpvB ΔfiuA ΔfoxA pHERD20T; assay: Growth of quadruple mutant with empty vector; settings: 10:90 + 2% arabinose
Experimental: (§3) Site-directed mutagenesis was used to confirm the docking predictions and to define the molecular determinants for ligand uptake through FpvB (Fig. 4C). We generated 17 single amino acid substitutions in FpvB and expressed each of them in trans in the quadruple ΔfpvA ΔfpvB ΔfiuA ΔfoxA mutant. Their ability to complement growth of the mutant in the presence of ferrichrome and ferrioxamine B and to restore TS susceptibility was assessed. […] The mutant transporters were tagged with a C-terminal FLAG tag to evaluate expression levels. FLAG-tagged FpvB mutants had WT levels of expression except for Y216T and W347V, which were expressed at 140% and 25% of WT, respectively.
(§4) The ΔfpvA ΔfpvB ΔfiuA ΔfoxA mutant was complemented with WT fpvA, fpvB, fiuA, and foxA in trans as controls (Fig. 4E).
(§5) MIC assays were conducted as previously described ([13], [14]). Overnight cultures were grown in LB from a glycerol stock at 37°C with shaking (200 rpm). Subcultures in 10:90 (1:100 dilution) were cultured for 4 h. Cells were adjusted to an optical density at 600 nm (OD600) of 0.1/500 in 10:90. All compounds were serially diluted 2-fold in dimethyl sulfoxide (DMSO) or H2O at 75× the final concentration. […] The next day, the OD600 was determined with a plate reader (Thermo Scientific) and normalized to percent of growth of the vehicle control after subtracting the OD600 from blank media.

[4] = test system: PA14 ΔfpvA ΔfpvB ΔfiuA ΔfoxA pHERD20T-fpvB W347V; assay: Growth of quadruple mutant expressing FpvB W347V; settings: FpvB W347V (expressed at 25% of WT), 10:90 + 2% arabinose
Experimental: as §3, §4, §5

[5] = test system: PA14 ΔfpvA ΔfpvB ΔfiuA ΔfoxA pHERD20T-fpvB Y432A; assay: Growth of quadruple mutant expressing FpvB Y432A; settings: 10:90 + 2% arabinose
Experimental: as §3, §4, §5

PA14 = assay: Growth curves with DSX and siderophores, WT PA14; settings: 20 h
Experimental: Supplementary file : FIG S1 (A) FpvB is expressed in WT PA14 and the ΔfpvA mutant grown in 10:90. PilF was used as a loading control for outer membrane proteins. (B) FpvA is expressed from WT PA14 grown in 10:90. […] PilF was used as a loading control for outer membrane proteins. (C) Growth curves of PA14 and mutants with DSX and different siderophores in 10:90. PA14, ΔfpvA, ΔfpvB, ΔfpvA ΔfpvB, and ΔpvdA ΔpchA strain growth. Blue indicates control, purple indicates treatment with 64 μg/mL DSX, yellow indicates treatment with 10 μg/mL pyoverdine (PA14), and red indicates treatment with 64 μg/mL DSX and 10 μg/mL pyoverdine (PA14). (D) ΔfpvA, ΔfpvA ΔfpvB, and ΔpvdA ΔpchA strain growth. Blue indicates control, purple indicates treatment with 64 μg/mL DSX, grey indicates treatment with 10 μg/mL ferrichrome, and red indicates treatment with 64 μg/mL DSX and 10 μg/mL ferrichrome. (E) ΔfpvA, ΔfpvA ΔfpvB, and ΔpvdA ΔpchA strain growth. […] Download FIG S1, EPS file, 8.5 MB.
Another explanation for the susceptibility of the ΔfpvA mutant to DSX is that the mutant produces less pyoverdine compared to WT cells due to loss of the signaling cascade that controls siderophore production in response to its binding to FpvA ([25]). To differentiate whether the fpvA mutant was susceptible to DSX because of reduced pyoverdine production or because FpvB was a poor pyoverdine transporter, we treated the WT, ΔfpvA, ΔfpvB, and ΔfpvA ΔfpvB strains with DSX (64 μg/mL) without and with exogenous pyoverdine (10 μg/mL) for 20 h (Fig. 1; see also Fig. S1C). Growth of the ΔfpvA mutant should be restored if there are functional pyoverdine transporters. […] The growth of the ΔfpvA ΔfpvB mutant was inhibited by DSX and pyoverdine, confirming previously published results ([18]).

SMILES	effect of siderophore on TS susceptibility [1]	effect of siderophore on TS susceptibility [2]	growth in the presence of siderophore [3]	growth in the presence of siderophore [4]	growth in the presence of siderophore [5]	growth with siderophore in the presence of DSX (PA14; 64 μg/mL DSX + 10 μg/mL pyoverdine)	growth versus control (PA14; DSX 64 μg/mL or pyoverdine 10 μg/mL alone, 10:90)
CC(=O)N(O)CCCCCNC(=O)CCC(=O)N(O)CCCCCNC(=O)CCC(=O)N(O)CCCCCN [ferrioxamine B]	None of those siderophores reduced TS susceptibility	antagonized TS susceptibility	inhibited	prevented growth	prevented growth		
NCCCCC(NC(=O)C(CO)NC(=O)[C@@H]1CCN=C2C(NC(=O)CCC(=O)O)=Cc3cc(O)c(O)cc3N21)C(=O)NCC(=O)NC(CCCN(O)C=O)C(=O)NC1CCCCNC(=O)C(CO)NC(=O)C(CCCN(O)C=O)NC1=O (stereo partly shown) [pyoverdine] (Suc-[X1][ξS][ξK]G[ξOrn(N(OH)CHO)][ξK][ξOrn(N(OH)CHO)][ξS]; lactam 6-C)						increased growth	increased growth
